Measurements taken from publication PMC9354705, “Characterization of TR‐107, a novel chemical activator of the human mitochondrial protease ClpP” (Pharmacology Research & Perspectives, 2022).
Where two headings read alike, the source gives them in different places.

Tests used:
[1] = test system: MDA‐MB‐231 and SUM159 cells; assay: Immunoblotting for mitochondrial proteins; type: cell-based, human
Procedure: Cell lysates were clarified and immunoblotted as described earlier.[45] Membranes were incubated with primary antibodies (Appendix S1) diluted 1:1000 in 1% fish gelatin (Sigma‐Aldrich, G7041)/TBST overnight at 4°C, removed, washed 3 × 5 min in TBST, and placed in their respective 2° antibodies (1:10 000 dilution in 5% milk/TBST) for 1 h. […] Acquired images were processed/quantified using Image Lab software (BioRad) or Image Studio Lite (LI‐COR).

[2] = Protein binding to plasma proteins (equilibrium dialysis); type: in vitro ADME; conditions: mouse plasma, read-out: serum‐free fraction
Procedure: Protein‐binding studies were performed by Eurofins Panlabs, Inc. This assay utilizes equilibrium dialysis in a microplate format, as previously described.[47] Briefly, this analysis is used to determine the bound and unbound fraction of the drug and calculate the percentage of the test compound binding to murine plasma proteins.

MDA‐MB‐231 xenografts = assay: MDA‐MB‐231 mouse xenograft study; type: in vivo
Procedure: Mitochondrial DNA copy number was determined as previously described.[23] Briefly, genomic DNA was isolated from tissue lysate with DNeasy Blood & Tissue kit (Qiagen, 69504). mtDNA copy number was determined by quantitative PCR with a human mitochondrial to nuclear DNA ratio kit (Takara Bio USA, 7246).
Female athymic nude mice (Crl:NU[Ncr]‐Foxn1^ nu , Charles River) were 8 weeks old with body weight (BW) range of 19.0–27.0 g on Day 1 of the study. Animals were fed ad libitum water (reverse osmosis, 1 ppm Cl) and NIH 31 Modified and Irradiated Lab Diet® consisting of 18.0% crude protein, 5.0% crude fat, and 5.0% crude fiber. Mice were housed on irradiated Enrich‐o'cobs™ Laboratory Animal Bedding in static microisolators on a 14‐h light cycle at 20–22°C and 40%–60% humidity. Charles River Discovery Services North Carolina (CR Discovery Services) specifically complies with the recommendations of the Guide for Care and Use of Laboratory Animals with respect to restraint, husbandry, surgical procedures, feed and fluid regulation, and veterinary care. The animal care and use program at CR Discovery Services is accredited by the Association for Assessment and Accreditation of Laboratory Animal Care International.
MDA‐MB‐231 human breast adenocarcinoma cells were grown to mid‐log phase in RPMI‐1640 supplemented with 10% FBS, 2 mM glutamine, 100 units/ml sodium penicillin G, 25 μg/ml gentamicin, 100 μg/ml streptomycin sulfate, 0.075% sodium bicarbonate, 10 mM HEPES, and 1 mM sodium pyruvate. Cells were cultures at 37°C and 5% CO2.
MDA‐MB‐231 cells were harvested during exponential growth and resuspended in cold, sterile DPBS. Each animal received an orthotopic injection of 5 × 10^6 cells (0.05 ml volume) into the mammary fat pad. Tumor growth was monitored as the average tumor size approached the target range of 60–100 mm^3. Tumors were measured in two dimensions via caliper and volume was calculated using the following formula: Tumor Volume=w^2×l/2, where w is the width and l is the length (mm) of the tumor. Tumor weight was estimated based on the assumption that 1 mg = 1 mm^3. Fourteen days later (Day 1), animals were sorted into groups (n = 10 per group) with a mean tumor volume of 70–73 mm^3.
Compounds were administered orally (p.o.) in a dosing volume of 10 ml/kg. Twice daily doses (B.I.D) were administered at least 6 h apart.
Tumors were measured using calipers biweekly and animals were euthanized upon reaching tumor volume > 1500 mm^3 or on the final study day (Day 36), whichever came first. Time to endpoint (TTE) for analysis was calculated for animals that exited the study due to tumor volume using the following equation: TTE=log10endpoint volume−b/m, where TTE is expressed in days, endpoint volume is expressed in mm^3, b is the y‐intercept, and m is the slope of the line obtained by linear regression of a log‐transformed tumor growth data set. […] In instance where this equation yields a TTE day preceding the day prior to reaching the endpoint or exceeding the day of reaching the endpoint, a linear interpolation was performed to approximate TTE. Animals documented as having died of nontreatment‐related causes due to accident or unknown etiology were excluded from TTE calculations and all further analysis. Animals documented having died due to treatment‐related deaths or nontreatment‐related due to metastasis were assigned a TTE value equivalent to the day of death. Treatment outcome was evaluated from tumor growth delay (TGD) defined as the increase in the median TTE in the treatment group compared with the control group.
On Day 36, all animals in all groups were sampled. Tumors were excised, divided into two parts, and weighed. Part 1 was preserved in a 5 ml fixative solution (4% formaldehyde, 2% glutaraldehyde in 0.1 M cacodylate buffer) and stored at 4°C. Part 2 was trimmed to be less than 0.5 cm in at least one dimension, submerged in five volumes of RNAlater solution, and stored at −20°C.

[3] = test system: MDA‐MB‐231 or SUM159 cells; assay: Caspase‐3/7 activity assay and PARP cleavage; type: cell-based, human
Procedure: […]. The samples were collected in lysis buffer (50 mM HEPES [pH: 7.4], 5 mM CHAPS, and 5 mM DTT), and caspase activity was measured by monitoring fluorescence (ex/em: 360/460 nm) using a SpectraMax i3x (Molecular Devices).

MDA‐MB‐231 cells = assay: Cell viability (total cell count, Hoechst stain) in MDA‐MB‐231 cells; type: cell-based, human; conditions: for IC50: Homo sapiens, MDA-MB-231, 72 h
C3(1)‐Tag cells = assay: Cell viability assay of C3Tag cells; type: cell-based, murine; conditions: Mus musculus; 72 h, Hoechst stain, N = 2
[4] = 100 nM TR‐107, 150 nM TR‐57, or 10 μM ONC201

N#Cc1cccc(CN2CCc3ncn(Cc4ccc(Cl)cc4)c(=O)c3C2)c1 [TR‐107]
TUFM and TFAM protein levels by 24 h [1, 4]: complete or near‐complete loss | time at which TUFM and TFAM protein levels began to decline [1, 4]: ~ 6 h | HSP60 levels ([1]; MDA‐MB‐231 cells, 100 nM): significantly reduced in a time‐dependent manner | fraction unbound [2]: 0.1 | reduction in tumor volume (MDA‐MB‐231 xenografts; 4 mg/kg (G2) and 8 mg/kg (G3) oral, day 26, vs vehicle): ~ 50% | increase in median survival (MDA‐MB‐231 xenografts; 4 mg/kg and 8 mg/kg oral, both groups, vs vehicle): ~ 35% | mitochondrial DNA in tumor lysates (MDA‐MB‐231 xenografts; 8 mg/kg (G3) vs control, end of study): substantial loss | PYCR2 and HMGCS1 protein levels in tumor lysates (MDA‐MB‐231 xenografts; 8 mg/kg vs vehicle): significantly reduced | TFAM in xenograft tumor lysates (immunoblot) (MDA‐MB‐231 xenografts; 8 mg/kg vs vehicle): significant loss | weight loss (MDA‐MB‐231 xenografts; even at the highest dosing regimen): less than 5% | tolerability (MDA‐MB‐231 xenografts; oral 4 and 8 mg/kg): well tolerated | caspase‐3/7 activity ([3]; 24 h, 10 μM ONC201, 150 nM TR‐57, 100 nM TR‐107, 100 nM staurosporine): no increase | PARP cleavage ([3]; data not shown): no increase | IC50 (MDA‐MB‐231 cells; WT cells, Hoechst stain, mean N = 3, read-out: IC50 (nM) MDA-MB-231): 23 nM | IC50 (MDA‐MB‐231 cells; media containing galactose, read-out: IC50 (nM) Galactose): 9.8 nM | IC50 (MDA‐MB‐231 cells; media containing glucose, read-out: IC50 (nM) Glucose): 19 nM | shift of growth inhibition dose–response (IC50) glucose to galactose (MDA‐MB‐231 cells; galactose instead of glucose, MDA‐MB‐231, 72 h): ~ 2 fold | IC50 (C3(1)‐Tag cells): 22 nM
